Key:
[1] = tested on: MCF-7 and SAOS tumor cell lines; assay: Recognition by murine CTL of epitopes at the surface of human tumor cells, TNF-α secretion assay; assay type: cell-based; settings: HLA-A*0201+ Hsp70+ tumor cells
From the text: CTL recognition of tumoral cells is expressed as CTL secretion of TNF-α dosed in supernatant (X Axis, TNF-α ranges from 0 to 1000 pg/ml) after contact with the cells. Upper to lower bars represent the different cells and reagents in contact with CTL, respectively: 2 negative controls (M113, M44), SAOS, MCF-7, MCF-7 blocked with anti-class I (w6/32) antibody before mixed culture, and MCF-7 blocked with an irrelevant antibody before mixed culture.
TNF-α Secretion Assay. Transfected COS cells on day 4 or 10^5 target tumor cells were plated in 50 μL RPMI 10% FCS and when necessary incubated with 10 μM peptide for 1 hour. In blocking experiments, anti-HLA class I antibody w6/32 or an irrelevant antibody were incubated with target cells for 1 h30. 5×10^4 T cells were then added in 50 μL RPMI 10% FCS and incubated for 6 hours. Each condition was tested in quadruplicates. 50 μL of the supernatant was collected. Standard dilutions were prepared in 50 μL with final doses of TNF-α (kindly provided by I. Apfler, Bender Wien, Austria) ranging from 10^4 to 0.08 pg/mL. On both the supernatants and the standards were added 50 μL of 3×10^4 TNF-α sensitive WEHI-164c13 cells. They were incubated for 16 hours at 37° C. (23). Inhibition of cell proliferation was evaluated by the MTT colorimetric method. Briefly, 50 μL of MTT at 2.5 mg/mL (Sigma-Aldrich) was added and incubated for 4 hours at 37° C. Cells were then lyzed with 100 μL of a pH4.7 33% N,N-dimethyl formamide (Sigma-Aldrich) 20% SDS solution in water. Two hours after cells lysis, OD was measured at 550 nm on a Dynatech MR5000 spectrophotometer. TNF-α quantitation was calculated by linear interpolation with the standard dilutions.
We studied whether the over-expression of Hsp70 described in certain tumor cell lines was high enough to enable these epitopes to be presented at the surface of tumor cells. We addressed this question with our already available high-avidity murine CTLs, hypothesizing that such a high CTL avidity enables the recognition of the highest-Hsp70 expressing human tumor cells. […]

[2] = tested on: murine CTL lines mCTL134, mCTL380, mCTL391, mCTL393; assay: Murine CTL avidity for peptide, 51Cr release cytotoxic assay; assay type: cell-based, HHD mice; settings: peptide concentration, effector:target ratio 40:1, each CTL line with its respective Hsp70 peptide, read-out: avidity (50% of maximal lysis)
Procedure: The four graphs indicate the cell lysis by CTL lines obtained after stimulation with the following peptides, respectively: HSP134 (line mCTL134), HSP380 (line mCTL380), HSP391 (line mCTL391) and HSP393 (line mCTL393). The avidity of the CTLs for their cellular target is determined with a ^51Cr release assay with an effector:target ratio of 40:1. The percentage of lysis of target cells is expressed on the Y axis, as a function of peptide concentration in the medium, which is represented on the X axis. In each graph, the black curve with diamond-shaped points represent cell lysis in presence of HSP peptides, whereas the grey curve with square points represent cell lysis in presence of cognate HSC peptides.
For measuring the avidity of mCTL134 for cells presenting HSP134, the peptide concentration ranges from […]. For mCTL380, mCTL391 and mCTL393, the respective peptide concentration ranges from 1 pM to 1 μM. The different points on each curve correspond, from left to right, to peptide concentrations of 1 pM, 10 pM, 100 pM, 1 nM, 10 nM, 100 nM and 1 μM.
Generation of CTL in HLA-transgenic mice. […]
Cytotoxic assay. […] After incubation, 100 μL of supernatant was collected and radioactivity was measured in a γ-counter. Percentage of specific lysis was determined as: Lysis=(Experimental Release−Spontaneous Release)/(Maximal Release−Spontaneous Release)×100. […]

Sequence | presentation of the epitope at the surface of Hsp70 over-expressing human tumor cells [1] | EC50 [2]
LLLLDVAPL [HSP 391] | demonstrated | –
LMGDKSENV [HSP 380] | demonstrated | ~10 nM
